{"source": "ChEMBL document CHEMBL3400097", "about": "“Effect of arginine methylation on the RNA recognition and cellular uptake of Tat-derived peptides” (Bioorg Med Chem, 2015)", "key": {"Nucleic Acid": {"test_system": "Nucleic Acid", "test": "Binding affinity to HIV TAR RNA by electrophoretic mobility shift assay in presence of Escherichia coli tRNA", "format": "nucleic-acid assay, Human immunodeficiency virus"}, "Jurkat": {"test_system": "Jurkat", "test": "Cytotoxicity against human Jurkat cells assessed as cell viability at 120 uM after 4 hrs by WST-1 assay", "format": "cell-based"}}, "data": [{"smiles": "CC(=O)N[C@@H](Cc1ccc(O)cc1)C(=O)NCC(=O)N[C@@H](CCCNC(=N)N)C(=O)N[C@@H](CCCCN)C(=O)N[C@@H](CCCCN)C(=O)N[C@@H](CCCNC(=N)N)C(=O)N[C@@H](CCCNC(=N)N)C(=O)N[C@@H](CCC(N)=O)C(=O)N[C@@H](CCCNC(=N)N)C(=O)N[C@@H](CCCNC(=N)N)C(=O)N[C@@H](CCCNC(=N)N(C)C)C(N)=O", "values": [{"measurement": "Kd", "setting": "Nucleic Acid", "result": 277, "unit": "nM"}, {"measurement": "Activity", "setting": "Jurkat", "result": "Non-toxic"}]}, {"smiles": "CNC(=N)NCCC[C@H](NC(=O)CNC(=O)[C@H](Cc1ccc(O)cc1)NC(C)=O)C(=O)N[C@@H](CCCCN)C(=O)N[C@@H](CCCCN)C(=O)N[C@@H](CCCNC(=N)N)C(=O)N[C@@H](CCCNC(=N)N)C(=O)N[C@@H](CCC(N)=O)C(=O)N[C@@H](CCCNC(=N)N)C(=O)N[C@@H](CCCNC(=N)N)C(=O)N[C@@H](CCCNC(=N)N)C(N)=O", "values": [{"measurement": "Kd", "setting": "Nucleic Acid", "result": 285, "unit": "nM"}, {"measurement": "Activity", "setting": "Jurkat", "result": "Non-toxic"}]}, {"smiles": "CNC(=N)NCCC[C@H](NC(=O)[C@H](CCCNC(=N)N)NC(=O)[C@H](CCC(N)=O)NC(=O)[C@H](CCCNC(=N)N)NC(=O)[C@H](CCCNC(=N)N)NC(=O)[C@H](CCCCN)NC(=O)[C@H](CCCCN)NC(=O)[C@H](CCCNC(=N)N)NC(=O)CNC(=O)[C@H](Cc1ccc(O)cc1)NC(C)=O)C(=O)N[C@@H](CCCNC(=N)N)C(N)=O", "values": [{"measurement": "Kd", "setting": "Nucleic Acid", "result": 219, "unit": "nM"}, {"measurement": "Activity", "setting": "Jurkat", "result": "Non-toxic"}]}, {"smiles": "C/N=C(\\NC)NCCC[C@H](NC(=O)[C@H](CCCNC(=N)N)NC(=O)[C@H](CCCCN)NC(=O)[C@H](CCCCN)NC(=O)[C@H](CCCNC(=N)N)NC(=O)CNC(=O)[C@H](Cc1ccc(O)cc1)NC(C)=O)C(=O)N[C@@H](CCC(N)=O)C(=O)N[C@@H](CCCNC(=N)N)C(=O)N[C@@H](CCCNC(=N)N)C(=O)N[C@@H](CCCNC(=N)N)C(N)=O", "values": [{"measurement": "Kd", "setting": "Nucleic Acid", "result": 576, "unit": "nM"}, {"measurement": "Activity", "setting": "Jurkat", "result": "Non-toxic"}]}, {"smiles": "CNC(=N)NCCC[C@H](NC(=O)[C@H](CCCNC(=N)N)NC(=O)[C@H](CCCNC(=N)N)NC(=O)[C@H](CCC(N)=O)NC(=O)[C@H](CCCNC(=N)N)NC(=O)[C@H](CCCNC(=N)N)NC(=O)[C@H](CCCCN)NC(=O)[C@H](CCCCN)NC(=O)[C@H](CCCNC(=N)N)NC(=O)CNC(=O)[C@H](Cc1ccc(O)cc1)NC(C)=O)C(N)=O", "values": [{"measurement": "Kd", "setting": "Nucleic Acid", "result": 197, "unit": "nM"}, {"measurement": "Activity", "setting": "Jurkat", "result": "Non-toxic"}]}, {"smiles": "CC(=O)N[C@@H](Cc1ccc(O)cc1)C(=O)NCC(=O)N[C@@H](CCCNC(=N)N)C(=O)N[C@@H](CCCCN)C(=O)N[C@@H](CCCCN)C(=O)N[C@@H](CCCNC(=N)N)C(=O)N[C@@H](CCCNC(=N)N)C(=O)N[C@@H](CCC(N)=O)C(=O)N[C@@H](CCCNC(=N)N)C(=O)N[C@@H](CCCNC(=N)N(C)C)C(=O)N[C@@H](CCCNC(=N)N)C(N)=O", "values": [{"measurement": "Kd", "setting": "Nucleic Acid", "result": 404, "unit": "nM"}, {"measurement": "Activity", "setting": "Jurkat", "result": "Non-toxic"}]}, {"smiles": "CNC(=N)NCCC[C@H](NC(=O)[C@H](CCC(N)=O)NC(=O)[C@H](CCCNC(=N)N)NC(=O)[C@H](CCCNC(=N)N)NC(=O)[C@H](CCCCN)NC(=O)[C@H](CCCCN)NC(=O)[C@H](CCCNC(=N)N)NC(=O)CNC(=O)[C@H](Cc1ccc(O)cc1)NC(C)=O)C(=O)N[C@@H](CCCNC(=N)N)C(=O)N[C@@H](CCCNC(=N)N)C(N)=O", "values": [{"measurement": "Kd", "setting": "Nucleic Acid", "result": 380, "unit": "nM"}, {"measurement": "Activity", "setting": "Jurkat", "result": "Non-toxic"}]}, {"smiles": "CNC(=N)NCCC[C@H](NC(=O)[C@H](CCCNC(=N)N)NC(=O)[C@H](CCCCN)NC(=O)[C@H](CCCCN)NC(=O)[C@H](CCCNC(=N)N)NC(=O)CNC(=O)[C@H](Cc1ccc(O)cc1)NC(C)=O)C(=O)N[C@@H](CCC(N)=O)C(=O)N[C@@H](CCCNC(=N)N)C(=O)N[C@@H](CCCNC(=N)N)C(=O)N[C@@H](CCCNC(=N)N)C(N)=O", "values": [{"measurement": "Kd", "setting": "Nucleic Acid", "result": 383, "unit": "nM"}, {"measurement": "Activity", "setting": "Jurkat", "result": "Non-toxic"}]}, {"smiles": "CC(=O)N[C@@H](Cc1ccc(O)cc1)C(=O)NCC(=O)N[C@@H](CCCNC(=N)N)C(=O)N[C@@H](CCCCN)C(=O)N[C@@H](CCCCN)C(=O)N[C@@H](CCCNC(=N)N)C(=O)N[C@@H](CCCNC(=N)N(C)C)C(=O)N[C@@H](CCC(N)=O)C(=O)N[C@@H](CCCNC(=N)N)C(=O)N[C@@H](CCCNC(=N)N)C(=O)N[C@@H](CCCNC(=N)N)C(N)=O", "values": [{"measurement": "Kd", "setting": "Nucleic Acid", "result": 881, "unit": "nM"}, {"measurement": "Activity", "setting": "Jurkat", "result": "Non-toxic"}]}, {"smiles": "CC(=O)N[C@@H](Cc1ccc(O)cc1)C(=O)NCC(=O)N[C@@H](CCCNC(=N)N(C)C)C(=O)N[C@@H](CCCCN)C(=O)N[C@@H](CCCCN)C(=O)N[C@@H](CCCNC(=N)N)C(=O)N[C@@H](CCCNC(=N)N)C(=O)N[C@@H](CCC(N)=O)C(=O)N[C@@H](CCCNC(=N)N)C(=O)N[C@@H](CCCNC(=N)N)C(=O)N[C@@H](CCCNC(=N)N)C(N)=O", "values": [{"measurement": "Kd", "setting": "Nucleic Acid", "result": 279, "unit": "nM"}, {"measurement": "Activity", "setting": "Jurkat", "result": "Non-toxic"}]}, {"smiles": "C/N=C(\\NC)NCCC[C@H](NC(=O)[C@H](CCCNC(=N)N)NC(=O)[C@H](CCCNC(=N)N)NC(=O)[C@H](CCC(N)=O)NC(=O)[C@H](CCCNC(=N)N)NC(=O)[C@H](CCCNC(=N)N)NC(=O)[C@H](CCCCN)NC(=O)[C@H](CCCCN)NC(=O)[C@H](CCCNC(=N)N)NC(=O)CNC(=O)[C@H](Cc1ccc(O)cc1)NC(C)=O)C(N)=O", "values": [{"measurement": "Kd", "setting": "Nucleic Acid", "result": 262, "unit": "nM"}, {"measurement": "Activity", "setting": "Jurkat", "result": "Non-toxic"}]}, {"smiles": "C/N=C(\\NC)NCCC[C@H](NC(=O)[C@H](CCCCN)NC(=O)[C@H](CCCCN)NC(=O)[C@H](CCCNC(=N)N)NC(=O)CNC(=O)[C@H](Cc1ccc(O)cc1)NC(C)=O)C(=O)N[C@@H](CCCNC(=N)N)C(=O)N[C@@H](CCC(N)=O)C(=O)N[C@@H](CCCNC(=N)N)C(=O)N[C@@H](CCCNC(=N)N)C(=O)N[C@@H](CCCNC(=N)N)C(N)=O", "values": [{"measurement": "Kd", "setting": "Nucleic Acid", "result": 328, "unit": "nM"}, {"measurement": "Activity", "setting": "Jurkat", "result": "Non-toxic"}]}, {"smiles": "C/N=C(\\NC)NCCC[C@H](NC(=O)CNC(=O)[C@H](Cc1ccc(O)cc1)NC(C)=O)C(=O)N[C@@H](CCCCN)C(=O)N[C@@H](CCCCN)C(=O)N[C@@H](CCCNC(=N)N)C(=O)N[C@@H](CCCNC(=N)N)C(=O)N[C@@H](CCC(N)=O)C(=O)N[C@@H](CCCNC(=N)N)C(=O)N[C@@H](CCCNC(=N)N)C(=O)N[C@@H](CCCNC(=N)N)C(N)=O", "values": [{"measurement": "Kd", "setting": "Nucleic Acid", "result": 219, "unit": "nM"}, {"measurement": "Activity", "setting": "Jurkat", "result": "Non-toxic"}]}, {"smiles": "C/N=C(\\NC)NCCC[C@H](NC(=O)[C@H](CCCNC(=N)N)NC(=O)[C@H](CCC(N)=O)NC(=O)[C@H](CCCNC(=N)N)NC(=O)[C@H](CCCNC(=N)N)NC(=O)[C@H](CCCCN)NC(=O)[C@H](CCCCN)NC(=O)[C@H](CCCNC(=N)N)NC(=O)CNC(=O)[C@H](Cc1ccc(O)cc1)NC(C)=O)C(=O)N[C@@H](CCCNC(=N)N)C(N)=O", "values": [{"measurement": "Kd", "setting": "Nucleic Acid", "result": 317, "unit": "nM"}, {"measurement": "Activity", "setting": "Jurkat", "result": "Non-toxic"}]}]}
